Results reported in the supplement of paper PMC8671470.

Experiments:
Details in all cases: 72 h
K-562 [1] = tested on: K-562
Procedure, shortened: (§1)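 Seeded in RPMI 1640 at densities within the linear growth range, fifteen myeloid leukaemia cell lines were dispensed into 384-well plates with acoustically pre-printed compounds spanning five tenfold doses from 1 to 10,000 nM, in duplicate. The plates were kept for 72 h at 37 °C in 5% CO2 before luminescent ATP viability was measured and normalised to vehicle and to a positive control at 10 µM. Curves were fitted with a four-parameter log-logistic model. The IC50 was taken from those curves.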

NOMO-1 [2] = tested on: NOMO-1
Procedure, shortened: as §1

MV4-11 [3] = tested on: MV4-11
Procedure, shortened: as §1

HEL [4] = tested on: HEL
Procedure, shortened: as §1

MOLM-13 [5] = tested on: MOLM-13
Procedure, shortened: as §1

KG-1 [6] = tested on: KG-1
Procedure, shortened: as §1

KU-812 [7] = tested on: KU-812
Procedure, shortened: as §1

THP-1 [8] = tested on: THP-1
Procedure, shortened: as §1

ML-2 [9] = tested on: ML-2
Procedure, shortened: as §1

HL-60 [10] = tested on: HL-60
Procedure, shortened: as §1

KCL-22 [11] = tested on: KCL-22
Procedure, shortened: as §1

Mono-Mac-6 [12] = tested on: Mono-Mac-6
Procedure, shortened: as §1

LAMA-84 [13] = tested on: LAMA-84
Procedure, shortened: as §1

BV-173 [14] = tested on: BV-173
Procedure, shortened: as §1

SHI-1 [15] = tested on: SHI-1
Procedure, shortened: as §1

K-562 [16] = experiment: cell viability (% survival relative to DMSO control, bortezomib = 0%); higher = less cytotoxic
Procedure, shortened: (§2)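 After 72 h at 37 °C with 5% CO2, cell viability in 384-well plates was measured by CellTiter-Glo luminescence. The plates held compounds pre-printed at 1, 10, 100, 1000 or 10000 nM in duplicate, and cells from 10 AML and 5 CML lines seeded at densities titrated to linear growth. Percent survival is the duplicate mean, normalised to vehicle as 100% and a 10 µM positive control as 0%.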

NOMO-1 [17] = experiment: as above
Procedure, shortened: as §2

MV4-11 [18] = experiment: as above
Procedure, shortened: as §2

HEL [19] = experiment: as above
Procedure, shortened: as §2

MOLM-13 [20] = experiment: as above
Procedure, shortened: as §2

KG-1 [21] = experiment: as above
Procedure, shortened: as §2

KU-812 [22] = experiment: as above
Procedure, shortened: as §2

THP-1 [23] = experiment: as above
Procedure, shortened: as §2

ML-2 [24] = experiment: as above
Procedure, shortened: as §2

HL-60 [25] = experiment: as above
Procedure, shortened: as §2

KCL-22 [26] = experiment: as above
Procedure, shortened: as §2

Mono-Mac-6 [27] = experiment: as above
Procedure, shortened: as §2

LAMA-84 [28] = experiment: as above
Procedure, shortened: as §2

BV-173 [29] = experiment: as above
Procedure, shortened: as §2

SHI-1 [30] = experiment: as above
Procedure, shortened: as §2

Cc1[nH]n(-c2ccccc2)c(=O)c1C1(C(F)(F)F)C(=O)N(c2ccccc2)C2=C1C(=O)CC(C)(C)C2 (stereo not given)
Details	IC50 (cell viability) [µM]
BV-173 [14]	> 10
HEL [4]	> 10
HL-60 [10]	> 10
K-562 [1]	> 10
KCL-22 [11]	> 10
KG-1 [6]	> 10
KU-812 [7]	> 10
LAMA-84 [13]	> 10
ML-2 [9]	> 10
MOLM-13 [5]	> 10
MV4-11 [3]	> 10
Mono-Mac-6 [12]	> 10
NOMO-1 [2]	> 10
SHI-1 [15]	> 10
THP-1 [8]	> 10

cell viability [%]
Details	1 nM	10 nM	100 nM	1000 nM	10000 nM
BV-173 [29]	103	89.2	128	99.8	111
HEL [19]	94.3	104	108	90.8	90.9
HL-60 [25]	121	120	104	77.6	103
K-562 [16]	89.6	100	103	108	97.3
KCL-22 [26]	84.5	140	99.2	108	103
KG-1 [21]	96.7	97.6	97.8	93.7	107
KU-812 [22]	104	94.3	97.7	111	95.3
LAMA-84 [28]	106	92.6	99.9	110	92.4
ML-2 [24]	98.6	87.9	115	101	99.8
MOLM-13 [20]	91.4	114	98.5	100	99.8
MV4-11 [18]	105	104	99.4	97.1	96.4
Mono-Mac-6 [27]	115	98.1	105	97.1	101
NOMO-1 [17]	104	94.6	108	101	101
SHI-1 [30]	101	109	109	108	104
THP-1 [23]	101	97.5	93.8	93.2	92

O=C1N[C@@H]2[C@@H](O)[C@@H](O)[C@H](O)[C@@H](CO)N2C1=O [Kifunensine]
Details	IC50 (cell viability) [µM]
BV-173 [14]	> 10
HEL [4]	> 10
HL-60 [10]	> 10
K-562 [1]	> 10
KCL-22 [11]	> 10
KG-1 [6]	> 10
KU-812 [7]	> 10
LAMA-84 [13]	> 10
ML-2 [9]	> 10
MOLM-13 [5]	> 10
MV4-11 [3]	> 10
Mono-Mac-6 [12]	> 10
NOMO-1 [2]	> 10
SHI-1 [15]	> 10
THP-1 [8]	> 10

cell viability [%]
Details	1 nM	10 nM	100 nM	1000 nM	10000 nM
BV-173 [29]	95	106	114	86.7	90.5
HEL [19]	99.6	105	125	87.8	109
HL-60 [25]	102	90.6	120	120	144
K-562 [16]	93.2	102	99.3	87.6	107
KCL-22 [26]	107	104	102	89	101
KG-1 [21]	96.1	93.2	112	88.6	85.6
KU-812 [22]	92.5	98.4	106	83.4	96.2
LAMA-84 [28]	103	98.6	114	84.4	107
ML-2 [24]	96.5	95.4	116	95.7	90.9
MOLM-13 [20]	76.3	105	117	81.3	130
MV4-11 [18]	96.4	96.3	103	82.9	72.1
Mono-Mac-6 [27]	91.8	102	107	88.7	92.4
NOMO-1 [17]	103	102	110	88.7	100
SHI-1 [30]	96.9	99.9	105	107	136
THP-1 [23]	98.6	95.2	97.7	89	104

O[C@H]1[C@H](O)[C@@H](O)CN2CC[C@H](O)[C@H]12 [Castanospermine]
Details	IC50 (cell viability) [µM]
BV-173 [14]	> 10
HEL [4]	> 10
HL-60 [10]	> 10
K-562 [1]	> 10
KCL-22 [11]	> 10
KG-1 [6]	> 10
KU-812 [7]	> 10
LAMA-84 [13]	> 10
ML-2 [9]	> 10
MOLM-13 [5]	> 10
MV4-11 [3]	> 10
Mono-Mac-6 [12]	> 10
NOMO-1 [2]	> 10
SHI-1 [15]	> 10
THP-1 [8]	> 10

cell viability [%]
Details	1 nM	10 nM	100 nM	1000 nM	10000 nM
BV-173 [29]	123	105	95.9	82.4	88.4
HEL [19]	113	109	105	126	112
HL-60 [25]	94.2	90.7	114	132	143
K-562 [16]	95.1	107	96.5	92.2	106
KCL-22 [26]	99	98	112	125	94.9
KG-1 [21]	120	98.4	116	99.4	104
KU-812 [22]	96.7	93.5	105	100	94.6
LAMA-84 [28]	93	97.5	103	95.8	101
ML-2 [24]	115	107	103	96	94.1
MOLM-13 [20]	79.9	90.7	108	123	117
MV4-11 [18]	102	106	97	95.5	107
Mono-Mac-6 [27]	100	97.3	105	95.1	97.6
NOMO-1 [17]	105	111	105	105	86.7
SHI-1 [30]	106	98	108	125	112
THP-1 [23]	91.9	105	101	96.9	98.8
